Experimental data published in patent US8377974B2 (Millennium Pharmaceuticals, Inc., priority 2004, dated 2013).

Target: T1, human plasma protein factor Xa (Homo sapiens, UniProt P00742)
T1 construct: measure proteolytic activity of the enzyme (factor Xa); purchased Haematologic Technologies (Essex Junction, Vt.); host or cells: human plasma
Assay: Factor Xa IC50 determination: cleavage of paranitroanilide substrate S-2765 in 96-well plates
Format: biochemical
Conditions: fXa 1 nM, S-2765 100 μM, Tris buffered saline pH 7.4, room temperature
In short: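 Initial rates of S-2765 (100 μM final) cleavage, read at 405 nm for 2 min, fitted with a four-parameter equation to give IC50. Enzyme: 1 nM human plasma fXa, 5 min room-temperature preincubation with inhibitor (0.01 nM–10 μM) in 20 mM Tris, 150 mM NaCl, 5 mM CaCl2, 0.1% BSA, 5% DMSO, pH 7.4; duplicates.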

T1 sequence (P00742 235-488 limits assumed): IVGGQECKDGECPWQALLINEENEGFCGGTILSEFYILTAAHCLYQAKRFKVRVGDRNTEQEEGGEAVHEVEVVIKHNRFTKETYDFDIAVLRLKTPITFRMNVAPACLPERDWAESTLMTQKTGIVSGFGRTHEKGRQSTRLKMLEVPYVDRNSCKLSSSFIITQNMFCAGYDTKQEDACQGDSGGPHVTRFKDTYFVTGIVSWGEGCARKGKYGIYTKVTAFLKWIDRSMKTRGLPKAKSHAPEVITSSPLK
T1 sequence (P00742 41-179 partner limits assumed): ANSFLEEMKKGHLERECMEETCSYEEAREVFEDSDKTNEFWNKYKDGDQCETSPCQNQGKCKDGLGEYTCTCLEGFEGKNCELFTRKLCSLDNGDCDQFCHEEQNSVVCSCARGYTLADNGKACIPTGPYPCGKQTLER

Compound | IC50 [µM]
COC(=O)c1cccc(Nc2ccc(C3=NOC(CNC(=O)c4ccc(Cl)s4)C3)cc2)c1 (stereo not shown) [Example 261, 3-[4-(5-{[(5-Chloro-thiophene-2-carbonyl)-amino]-methyl}-4,5-dihydro-isoxazol-3-yl)-phenylamino]-benzoic acid methyl ester] | ≥ 0.5
COC(=O)c1ccc(Nc2ccc(C3=NOC(CNC(=O)c4ccc(Cl)s4)C3)cc2)cc1 (stereo not shown) [Example 262, 4-[4-(5-{[(5-Chloro-thiophene-2-carbonyl)-amino]-methyl}-4,5-dihydro-isoxazol-3-yl)-phenylamino]-benzoic acid methyl ester] | ≥ 0.5
O=C(NCC1CC(c2cccc(-c3ccccc3CN3CCCC3)c2)=NO1)c1ccc(Cl)s1 (stereo not shown) [Example 263, 5-Chloro-thiophene-2-carboxylic acid [3-(2′-pyrrolidin-1-ylmethyl-biphenyl-3-yl)-4,5-dihydro-isoxazol-5-ylmethyl]-amide] | ≥ 0.5
CN(C)Cc1cccc(-c2cccc(C3=NOC(CNC(=O)c4ccc(Cl)s4)C3)c2)c1 (stereo not shown) [Example 264, 5-Chloro-thiophene-2-carboxylic acid [3-(3′-dimethylaminomethyl-biphenyl-3-yl)-4,5-dihydro-isoxazol-5-ylmethyl]-amide] | ≥ 0.5
O=C(NCC1CC(c2cccc(-c3cccc(CN4CCCC4)c3)c2)=NO1)c1ccc(Cl)s1 (stereo not shown) [Example 265, 5-Chloro-thiophene-2-carboxylic acid [3-(3′-pyrrolidin-1-ylmethyl-biphenyl-3-yl)-4,5-dihydro-isoxazol-5-ylmethyl]-amide] | ≥ 0.5
CN(C)Cc1ccc(-c2cccc(C3=NOC(CNC(=O)c4ccc(Cl)s4)C3)c2)cc1 (stereo not shown) [Example 266, 5-Chloro-thiophene-2-carboxylic acid [3-(4′-dimethylaminomethyl-biphenyl-3-yl)-4,5-dihydro-isoxazol-5-ylmethyl]-amide] | ≥ 0.5
O=C(NCC1CC(c2cccc(-c3ccc(CN4CCCC4)cc3)c2)=NO1)c1ccc(Cl)s1 (stereo not shown) [Example 267, 5-Chloro-thiophene-2-carboxylic acid [3-(4′-pyrrolidin-1-ylmethyl-biphenyl-3-yl)-4,5-dihydro-isoxazol-5-ylmethyl]-amide] | ≥ 0.5
CN(C)Cc1ccccc1-c1cccc(-c2cc(CNC(=O)c3ccc(Cl)s3)on2)c1 [Example 268, 5-Chloro-thiophene-2-carboxylic acid [3-(T-dimethylaminomethyl-biphenyl-3-yl)-isoxazol-5-ylmethyl]-amide] | ≥ 0.5
CN(C)Cc1cccc(-c2cccc(-c3cc(CNC(=O)c4ccc(Cl)s4)on3)c2)c1 [Example 270, 5-Chloro-thiophene-2-carboxylic acid [3-(3′-dimethylaminomethyl-biphenyl-3-yl)-isoxazol-5-ylmethyl]-amide] | ≥ 0.5
O=C(NCc1cc(-c2cccc(-c3cccc(CN4CCCC4)c3)c2)no1)c1ccc(Cl)s1 [Example 271, 5-Chloro-thiophene-2-carboxylic acid [3-(3′-pyrrolidin-1-ylmethyl-biphenyl-3-yl)-isoxazol-5-ylmethyl]-amide] | ≥ 0.5
CN(C)Cc1ccc(-c2cccc(-c3cc(CNC(=O)c4ccc(Cl)s4)on3)c2)cc1 [Example 272, 5-Chloro-thiophene-2-carboxylic acid [3-(4′-dimethylaminomethyl-biphenyl-3-yl)-isoxazol-5-ylmethyl]-amide] | ≥ 0.5
O=C(NCc1cc(-c2cccc(-c3ccc(CN4CCCC4)cc3)c2)no1)c1ccc(Cl)s1 [Example 273, 5-Chloro-thiophene-2-carboxylic acid [3-(4′-pyrrolidin-1-ylmethyl-biphenyl-3-yl)-isoxazol-5-ylmethyl]-amide] | ≥ 0.5
O=C(NCC1CC(c2cccc(-c3cccnc3)c2)=NO1)c1ccc(Cl)s1 (stereo not shown) [Example 274, 5-Chloro-thiophene-2-carboxylic acid [3-(3-pyridin-3-yl-phenyl)-4,5-dihydro-isoxazol-5-ylmethyl]-amide] | ≥ 0.5
O=C(NCC1CC(c2cccc(-c3ccncc3)c2)=NO1)c1ccc(Cl)s1 (stereo not shown) [Example 275, 5-Chloro-thiophene-2-carboxylic acid [3-(3-pyridin-4-yl-phenyl)-4,5-dihydro-isoxazol-5-ylmethyl]-amide] | ≥ 0.5
O=C(NCc1cc(-c2cccc(-c3cccnc3)c2)no1)c1ccc(Cl)s1 [Example 276, 5-Chloro-thiophene-2-carboxylic acid [3-(3-pyridin-3-yl-phenyl)-isoxazol-5-ylmethyl]-amide] | ≥ 0.5
O=C(NCc1cc(-c2ccc(I)cc2)no1)c1ccc(Cl)s1 [Example 288, 5-Chloro-N-((3-(4-iodophenyl)isoxazol-5-yl)methyl)thiophene-2-carboxamide] | ≥ 0.5

Results, then the compound that gave them:

IC50 [µM] | Compound
≤ 0.1 | O=C(NCc1cc(-c2ccc(Nc3cccnc3)cc2)no1)c1ccc(Cl)s1 [Example 253, 5-Chloro-thiophene-2-carboxylic acid {3-[4-(pyridin-3-ylamino)-phenyl]-isoxazol-5-ylmethyl}-amide]
≤ 0.1 | O=C(NCc1cc(-c2ccc(Nc3ccncc3)cc2)no1)c1ccc(Cl)s1 [Example 254, 5-Chloro-thiophene-2-carboxylic acid {3-[4-(pyridin-4-ylamino)-phenyl]-isoxazol-5-ylmethyl}-amide]
≥ 0.5 | CN(c1ccncc1)c1ccc(-c2cc(CNC(=O)c3ccc(Cl)s3)on2)cc1 [Example 255, 5-Chloro-thiophene-2-carboxylic acid {3-[4-(methyl-pyridin-4-yl-amino)-phenyl]-isoxazol-5-ylmethyl}-amide]
≥ 0.5 | O=C(NCc1cc(-c2ccc(N3CCCC3)cc2)no1)c1ccc(Cl)s1 [Example 256, 5-Chloro-thiophene-2-carboxylic acid [3-(4-pyrrolidin-1-yl-phenyl)-isoxazol-5-ylmethyl]-amide]
≥ 0.5 | O=C(NCc1cc(-c2ccc(N3CCOCC3)cc2)no1)c1ccc(Cl)s1 [Example 257, 5-Chloro-thiophene-2-carboxylic acid [3-(4-morpholin-4-yl-phenyl)-isoxazol-5-ylmethyl]-amide]
≥ 0.5 | O=C(NCc1cc(-c2ccc(NCc3ccccc3)cc2)no1)c1ccc(Cl)s1 [Example 258, 5-Chloro-thiophene-2-carboxylic acid [3-(4-benzylamino-phenyl)-isoxazol-5-ylmethyl]-amide]
≥ 0.5 | CN1CCC(Nc2ccc(-c3cc(CNC(=O)c4ccc(Cl)s4)on3)cc2)CC1 [Example 259, 5-Chloro-thiophene-2-carboxylic acid {3-[4-(1-methyl-piperidin-4-ylamino)-phenyl]-isoxazol-5-ylmethyl}-amide]
≥ 0.5 | COC(=O)c1ccccc1Nc1ccc(C2=NOC(CNC(=O)c3ccc(Cl)s3)C2)cc1 (stereo not shown) [Example 260, 2-[4-(5-{[(5-Chloro-thiophene-2-carbonyl)-amino]-methyl}-4,5-dihydro-isoxazol-3-yl)-phenylamino]-benzoic acid methyl ester]
≤ 0.1 | O=C(NCc1cc(-c2cccc(-c3ccccc3CN3CCCC3)c2)no1)c1ccc(Cl)s1 [Example 269, 5-Chloro-thiophene-2-carboxylic acid [3-(2′-pyrrolidin-1-ylmethyl-biphenyl-3-yl)-isoxazol-5-ylmethyl]-amide]
≤ 0.1 | O=C(NCC1CC(c2ccc(-n3ccccc3=O)cc2)=NO1)c1ccc(Cl)s1 (stereo not shown) [Example 278, 5-Chloro-N-((3-(4-(2-oxopyridin-1(2H)-yl)phenyl)-4,5-dihydroisoxazol-5-yl)methyl)thiophene-2-carboxamide]
≤ 0.1 | O=C(NCC1CC(c2ccc(-n3cccc(F)c3=O)cc2)=NO1)c1ccc(Cl)s1 (stereo not shown) [Example 279, 5-Chloro-N-((3-(4-(3-fluoro-2-oxopyridin-1(2H)-yl)phenyl)-4,5-dihydroisoxazol-5-yl)methyl)thiophene-2-carboxamide]
≤ 0.1 | O=C(NCC1CC(c2ccc(-n3cc(F)ccc3=O)cc2)=NO1)c1ccc(Cl)s1 (stereo not shown) [Example 280, 5-Chloro-N-((3-(4-(5-fluoro-2-oxopyridin-1(2H)-yl)phenyl)-4,5-dihydroisoxazol-5-yl)methyl)thiophene-2-carboxamide]
≤ 0.1 | Cc1cccn(-c2ccc(C3=NOC(CNC(=O)c4ccc(Cl)s4)C3)cc2)c1=O (stereo not shown) [Example 281, 5-Chloro-N-((3-(4-(3-methyl-2-oxopyridin-1(2H)-yl)phenyl)-4,5-dihydroisoxazol-5-yl)methyl)thiophene-2-carboxamide]
≤ 0.1 | COc1cccn(-c2ccc(C3=NOC(CNC(=O)c4ccc(Cl)s4)C3)cc2)c1=O (stereo not shown) [Example 282, 5-Chloro-N-((3-(4-(3-methoxy-2-oxopyridin-1(2H)-yl)phenyl)-4,5-dihydroisoxazol-5-yl)methyl)thiophene-2-carboxamide]
≤ 0.1 | O=C(NCC1CC(c2ccc(-n3cccc(Cl)c3=O)cc2)=NO1)c1ccc(Cl)s1 (stereo not shown) [Example 283, 5-Chloro-N-((3-(4-(3-chloro-2-oxopyridin-1(2H)-yl)phenyl)-4,5-dihydroisoxazol-5-yl)methyl)thiophene-2-carboxamide]
≤ 0.1 | Cc1ccn(-c2ccc(C3=NOC(CNC(=O)c4ccc(Cl)s4)C3)cc2)c(=O)c1 (stereo not shown) [Example 284, 5-Chloro-N-((3-(4-(4-methyl-2-oxopyridin-1(2H)-yl)phenyl)-4,5-dihydroisoxazol-5-yl)methyl)thiophene-2-carboxamide]
≤ 0.1 | Cc1ccc(=O)n(-c2ccc(C3=NOC(CNC(=O)c4ccc(Cl)s4)C3)cc2)c1 (stereo not shown) [Example 285, 5-Chloro-N-((3-(4-(5-methyl-2-oxopyridin-1(2H)-yl)phenyl)-4,5-dihydroisoxazol-5-yl)methyl)thiophene-2-carboxamide]
≤ 0.1 | COc1ccc(=O)n(-c2ccc(C3=NOC(CNC(=O)c4ccc(Cl)s4)C3)cc2)c1 (stereo not shown) [Example 286, 5-Chloro-N-((3-(4-(5-methoxy-2-oxopyridin-1(2H)-yl)phenyl)-4,5-dihydroisoxazol-5-yl)methyl)thiophene-2-carboxamide]
